Measurements published in patent publication US20080242878A1, “Semi-Synthetic Taxane Derivatives With Antitumor Activity” (priority 2005, published 2008).

Tests used:
MCF7 = assay: Cytotoxicity, SRB test, 72 h exposure, MCF7; details: Homo sapiens, MCF7, 72 h, read-out: Cytotoxicity (IC50 (nM) 72 h exposure of cells to compound ± SE (SRB test) MCF7)
MCF7/R = assay: Cytotoxicity, SRB test, 72 h exposure, MCF7/R (resistant cells); details: for IC50: Homo sapiens, MCF7R, 72 h, read-out: Cytotoxicity (IC50 (nM) 72 h exposure of cells to compound ± SE (SRB test) MCF7/R); for RI (cross-resistance index): IC50 MCF7/R versus IC50 MCF7

SMILES	IC50 (MCF7) [nM]	IC50 (MCF7/R) [nM]	RI (cross-resistance index) (MCF7/R)
CO/C1=C(\C)C([C@]2(OC(C)=O)CO[C@@H]2CCOC(C)=O)[C@H](OC(=O)c2ccccc2)[C@]2(O)C[C@H](OC(=O)[C@H](O)[C@H](CC(C)C)NC(=O)OC(C)(C)C)C(C)=C(C1=O)C2(C)C (stereo partly drawn) [Ex. 6, 13-(N-Boc-β-isobutylisoserinoyl)-9-O-methyl-7-O-acetyl-C7,8-seco-10-deacetylbaccatin III]	66 ± 5.4	747 ± 45	11
CO/C1=C(\C)C([C@]2(OC(C)=O)CO[C@@H]2CCO)[C@H](OC(=O)c2ccccc2)[C@]2(O)C[C@H](OC(=O)[C@H](O)[C@H](CC(C)C)NC(=O)OC(C)(C)C)C(C)=C(C1=O)C2(C)C (stereo partly drawn) [Ex. 3, 13-(N-Boc-β-isobutyl-isoserinoyl)-9-O-methyl-C7,8-seco-10-deacetylbaccatin III]	38 ± 3.9	945 ± 40	25
CO/C1=C(\C)C([C@]2(OC(C)=O)CO[C@@H]2CCOCSC)[C@H](OC(=O)c2ccccc2)[C@]2(O)C[C@H](OC(=O)[C@H](O)[C@H](CC(C)C)NC(=O)OC(C)(C)C)C(C)=C(C1=O)C2(C)C (stereo partly drawn) [Ex. 2, 13-(N-Boc-β-isobutyl-isoserinoyl)-9-O-methyl-7-O-methylthiomethyl-C7,8-seco-10-deacetylbaccatin III]	103 ± 13	558 ± 28	5.4
COCC[C@H]1OC[C@@]1(OC(C)=O)C1/C(C)=C(/OC)C(=O)C2=C(C)[C@@H](OC(=O)[C@H](O)[C@H](CC(C)C)NC(=O)OC(C)(C)C)C[C@@](O)([C@H]1OC(=O)c1ccccc1)C2(C)C (stereo partly drawn) [Ex. 7, 13-(N-Boc-β-isobutylisoserinoyl)-7,9-of-O-methyl-C7,8-seco-10-deacetylbaccatin III]	25.5 ± 2.6	168 ± 9.5	6.6
CC(=O)O[C@@]1(C2/C(C)=C(/O)C(=O)C3=C(C)[C@@H](OC(=O)[C@H](O)[C@H](CC(C)C)NC(=O)OC(C)(C)C)C[C@@](O)([C@H]2OC(=O)c2ccccc2)C3(C)C)CO[C@@H]1CCO (stereo partly drawn) [IDN 5390, reference compound]	11.2 ± 0.81	1040 ± 93	93
CSCOCC[C@H]1OC[C@@]1(OC(C)=O)C1/C(C)=C(/OCSC)C(=O)C2=C(C)[C@@H](OC(=O)[C@H](O)[C@H](CC(C)C)NC(=O)OC(C)(C)C)C[C@@](O)([C@H]1OC(=O)c1ccccc1)C2(C)C (stereo partly drawn) [Ex. 5, 13-(N-Boc-β-isobutylisoserinoyl)-7,9-O-bis(methylthiomethyl)-C7,8-seco-10-deacetylbaccatin III]	58 ± 5.9	333 ± 23	5.7
CSCOCC[C@H]1OC[C@@]1(OC(C)=O)C1/C(C)=C(/O)C(=O)C2=C(C)[C@@H](OC(=O)[C@H](O)[C@H](CC(C)C)NC(=O)OC(C)(C)C)C[C@@](O)([C@H]1OC(=O)c1ccccc1)C2(C)C (stereo partly drawn) [Ex. 4, 13-(N-Boc-β-isobutylisoserinoyl)-7-O-methylthiomethyl-C7,8-seco-10-deacetylbaccatin III]	26 ± 2.1	501 ± 41	19
